One may read the MIC as the lowest concentration that inhibits growth of the organism.

For data set [1], the system named is EBC-1 spheroids. As to the kind of experiment: Penetration into EBC-1 3D spheroids (confocal line scan). Type of data set: cell-based, human. The settings on record: 10 µM, 3 h, confocal z-stack to 55 µm, line scan n = 16. Here is the method: In this study, we have employed a modified method based on ([55]). Briefly, micromolds for casting 3D Petri dishes (MicroTissues, Sigma, 5 × 7 array) were filled with molten agarose (2% (w/v) in PBS). The gelled agarose dishes were equilibrated with serum-free DMEM (2 ml/2 h, 37°C). Cells were seeded after incubation (1.8 × 10^4 cell/µL in DMEM CM). Prior to seeding process, nuclei were stained with Hoechst 33342 solution (0.2 µM) for 30 min ( Figure 2 ). Based on our previous work ([55]), the nuclear stain could not successfully penetrate into deeper layers of the spheroids (mostly localized at the spheroid surface), and towards the center of the spheroids the Hoechst 33342 signal was gradually decreasing. Stained cells were incubated in 2 ml DMEM CM for 48 h while cell-to-cell adhesion drives the aggregation and formation of spheroids. To monitor the condition of the spheroids, bright-field images were captured (Olympus CX41). After 48 h of incubation, spheroids were washed two times with fresh ICM DMEM and were treated with the Cf-Dhvar4 peptide (10 µM/2 ml ICM DMEM for 3 h). […] Line scan analysis was performed by NIH ImageJ software, two spheroids were analyzed (eight scans per spheroid, n = 16 in total). […]
Next, we assessed the penetration ability of Cf-Dhvar4 peptide on spheroids formed from EBC-1 cells. […]

The subject of data set [2] is MonoMac-6 cells. In kind it is cell-based, human. Conditions: 10 µM Cf-peptide, 2 h, LysoTracker, ImageJ JACoP on merged images.
Procedure: Cellular uptake and localization were visualized by confocal laser scanning microscopy. MonoMac-6 cells were seeded 1 day prior to treatment into coverslips (thickness 1, Assistent, Karl Hecht GmbH, Sondheim vor der Rhön, Germany) containing a 24-well plate (Sarstedt, Nümbrecht, Germany) for microscopy studies at a density of 7.5 × 10^4 cells/well, in 1 ml complete DMEM medium. The following day, cells were treated with Cf-peptide at a concentration of 10 µM (diluted in serum-free DMEM medium) for 2 h. Lysosomes were stained by LysoTracker Deep Red (Invitrogen, Waltham, MA, USA) for 30 min, and nuclei were stained by Hoechst 33342 solution (Thermo Scientific, USA). After each step, cells were washed three times with serum-free medium, then cells were fixed by 4% paraformaldehyde for 15 min and mounted to microscopy slides with Mowiol 4-88 (Sigma, Budapest, Hungary). Imaging was performed by a Zeiss LSM-710 system (Carl Zeiss microscopy GmbH, Oberkochen, Germany) with a ×40/1.4 Plan-Apochromat oil immersion objective using lasers with the parameters: Cf peptides λex = 488 nm, λem = 541 nm, nuclei λex = 405 nm, λem = 467 nm (Hoechst 33342), lysosomes λex = 633 nm, λem = 720 nm (LysoTrackerTM Deep Red) or λex = 577 nm, λem = 590 nm (LysoTrackerTM Red DND-99) were used. Zeiss ZEN lite software (Carl Zeiss Microscopy GmbH, Jena, Germany) was used for image processing.
Parallel with flow cytometry measurements, confocal laser scanning microscopy images were also captured in order to assess qualitative information on intracellular localization. LysoTrackerTM Deep Red was used for lysosome and Hoechst 33342 for nuclear staining to distinguish subcellular localization of the Cf-peptide. […] Colocalization of Cf-peptide and LysoTracker may be subjectively identified by the cooccurrence, the simple spatial overlap which combined the contribution of both signals (green and red) when the images of each signal are superimposed (merged, see Supplementary Figure S3 ).
microscopy at the 10 µM Cf-peptide concentration (based on flow cytometry profile), and MonoMac6 cells were incubated for 2 hrs.
the visible differences among localization profiles of the Cf-peptides, we applied greyscale analysis of
the images and the evaluation was carried out on a representative peptide set.
were studied and the treatment, the staining and fixation process were carefully optimized to assess
Laser intensity values were identical in case of all Cf-peptides. ZEN 3.0 blue lite software
was used for image processing and grey scale values were extracted using NIH ImageJ software’s Plot
The test system of data set [3] is CALU-1 monolayer / EBC-1 cells. Type of data set: in vitro ADME, human. The settings on record: Transwell, 0.4 µm polycarbonate, Cf-peptide apical 10 and 20 µM, 45 min, apical to basolateral; EBC-1 fluorescence read-out. Here is the method:
EBC-1 lung squamous carcinoma and CALU-1 human lung epidermoid carcinoma were seeded on 24-well plates with Transwell inserts (TW) [Nunc, Sigma polycarbonate microporous membrane, 0.4 µm pore size (growth area 0.412 cm^2)]. Before use, TW inserts were incubated with ICM. On day 1, 300 μl of CALU-1 suspension in complete DMEM medium (8.0 × 10^5 cells) was pipetted onto the surface of the TW apical chamber and 500 μl complete DMEM medium was added to the basolateral side. In order to avoid nonattached cells, after incubation at 37°C for 5–6 h, the apical medium was removed and replaced with fresh complete DMEM medium. […] On day 5, the medium was changed, then Cf-peptide was added to the CALU-1-containing apical side at 10 and 20 µM concentrations, and the system was incubated for 45 min or 3 h (37°C, 5% CO2). The TW chamber was removed after incubation. EBC-1 cells were studied using flow cytometry (BD LSR II).
EBC-1 cells were treated without the presence of the TW inserts as controls (on day 4 prior to treatment, EBC-1 cells (10^5 cells/well in complete DMEM). […]
Figure 7 The penetration ability of Cf-peptides was determined on Transwell bronchial interface, and the penetration rates were quantified by flow cytometry. […] The confluence of CALU-1 monolayer was monitored with CellTracker Green, and after development of stable green fluorescence, cells were imaged in situ. […]

A short description of data set [4]: Analytical RP-HPLC retention time (correlates with overall hydrophobicity). Type of data set: physicochemical. Also on record: Rt (retention time): unit not given here. The settings on record: chromatographic measure of hydrophobicity; Waters Acquity UPLC BEH C18 (1.7 µm, 150 × 2.1 mm), flow rate 0.3 ml/min, gradient 2% B 1 min, 2%–100% B 16 min; single peak or first of two 5(6)-Cf isomer peaks. Here is the method:
Purified peptides were analyzed by LC-MS using a Thermo Scientific Q Exactive Focus Hybrid Quadrupole-Orbitrap Mass Spectrometer. For the separation, a Waters Acquity UPLC BEH C18 (1.7 µm, 150 × 2.1 mm) column was used with a flow rate of 0.3 ml/min.
For INH conjugation, representative cell-penetrating (CPP) and antimicrobial peptides (AMP) were chosen. These cationic, amphiphilic peptides are favored in the transportation of various cargos due to their high internalization rate. The used peptide series contains well-known CPPs such as penetratin, transportan, and Tat, frequently studied AMPs such as magainin and buforin, and designed analogs such as Dhvar4, Crot(1-9,38-42), and CM15. Also, a receptor-binding tuftsin analog (OT20), which was reported as a macrophage-targeting peptide, was also applied. […] Mass spectra and RP-HPLC chromatograms are available at https://figshare.com/s/48a023a25068f7658adf, DOI: 10.6084/m9.figshare.16644901. […] To study the internalization rate and intracellular localization, fluorescently labeled analogs were also synthesized. Note that the retention time of Cf-peptide are somewhat higher than unlabeled analogs, and in some cases, two peaks were detected due to the isomeric distribution of 5(6)-Cf molecule.

The test system of data set [5] is Mtb H37Rv-infected MonoMac-6 human monocytes. As to the kind of experiment: Intracellular killing of Mycobacterium tuberculosis. Type of data set: cell-based.
For data set [6], the system named is EBC-1 cells. In kind it is cell-based, human. The settings on record: 10 µM, 3 hrs, fixed, 30 profiles. Here is the method:
In addition to the internalization experiments, the surface morphology of INH-peptide-treated and fixed EBC-1 cells was also studied with atomic force microscopy (AFM) ( Supplementary Information 1.3 ). High-resolution imaging of the cell surfaces was performed with a Flex-Axiom AFM system (Nanosurf, Liestal, Switzerland).The representative images and surface roughness of the native and treated cells are shown in Supplementary Figure S2 .
1.3 Membrane integrity evaluation by atomic force microscopy (AFM) […]
High resolution imaging of the surfaces were performed with a Flex-Axiom AFM system (Nanosurf, Liestal, Switzerland) operating in dynamic mode utilizing soft-tapping cantilevers (Tap150-G, BudgetSensors) with nominal force constant of 5 N/m. The recorded images were evaluated with the Gwyddion software. […]
Two cut-off frequencies were chosen with real-space wavelengths of 1 μm and 200 nm. […] Figure 2D,E,F. Scale dependent surface roughness of the cells was determined according to Antonio et al. Mean Rq values are somewhat higher in the peptide and conjugate treated cells, but […]
Supplementary Figure 2. […] The apex area of the cells was selected for imaging with a scan area of 5 μm × 5 μm (512 × 512 pixel resolution), where the cellular curvature has the smallest distortion effect on the recorded height profiles. […]
1.4. […] To quantify […]

Data set [7] relates to Mycobacterium tuberculosis H37Rv. As to the kind of experiment: Slow progressing murine TB model (i.p. infection), CFU in organs. Type of data set: in vivo, BALB/c female mice. The settings on record: BALB/c mice, INH 20 mg/kg bw per os, twice a week for 5 weeks, 1 week after 10th treatment.
For data set [8], the system named is Mtb H37Rv. As to the kind of experiment: In vitro antitubercular effect, broth dilution MIC. In kind it is cell-based. Conditions: Mycobacterium tuberculosis, 672 h, extracellular Mtb H37Rv, Sula semisynthetic medium pH 6.5, 37°C, 28 days, repeated at least two times. A general note: Broth dilution looks for growth in wells or tubes with falling amounts of substance.

In brackets after ≈: the same amount, converted by molar mass. Where two headings read alike, the source gives them in different places. Ends that are not written are not given here.

As for “Cf-RAGLQFPVGRVHRLLRK [Cf-Dhvar4, 5(6)-carboxyfluorescein-labeled Dhvar4]”, the “penetration ability on EBC-1 spheroids” value in data set [1] is reported as “fair penetration ability”. In addition, the “Pearson's coefficient of colocalization with lysosomal staining” value in data set [2] was determined as 0.249.
Consider “KRLFKKLLFSLRKY-NH2 [Dhvar4, reference compound]”, for which the “penetration through CALU-1 monolayer and internalization into EBC-1 cells” value in data set [3] is reported as “higher internalization rates”. In addition, the “Rt (retention time)” value in data set [4] was 6.9. The “intracellular killing efficacy (CFU)” value in data set [5] is listed as “not effective”. Further, in data set [6], the “membrane integrity (AFM surface roughness Rq)” value is reported as “membrane integrity maintained”.
For `NNC(=O)c1ccncc1` [INH, isoniazid], the “intracellular killing efficacy (CFU)” value in data set [5] (5, 10, 50 µM, treated two times for 3 + 3 days, SDS lysis, CFU on Löwenstein-Jensen after 4 weeks) was “not effective”. In data set [7] (INH-Dhvar4 30 mg/kg bw s.c.), the “Mtb CFU in spleen” value is on record as “moderate decrease”. Besides, the “Mtb CFU in lung” value in data set [7] is “Clearance of Mtb from the lung”. Moreover, the MIC in data set [8] is 0.1 to 0.5 µM (≈ 0.0137 to 0.0686 µg/mL).

(Values after paper PMC8632718, “Novel Assay Platform to Evaluate Intracellular Killing of Mycobacterium tuberculosis: In Vitro and In Vivo Validation” (Frontiers in Immunology, 2021).)
